“Also recorded” adds a separate entry of the source. Where two headings read alike, the source gives them in different places.
Legend:
[1] = tested on: D538G MT-ERα; experiment: ERα ChIP, ERX-315; type: cell-based
Text: (§1) FIGS. 66A-D: (FIG. 66A) Effect of ERX-315 on ERa DNA binding on the promoters of 5 canonical ERα-regulated genes with ERa ChIP in MCF-7 expressing D538G MT-ERα in the absence and presence of estradiol.
(§2) Prior studies have shown that MT-ERα drives a canonical ERα transcriptional programme, both in the absence and presence of estradiol. RNA sequencing studies indicate that ERX-315 alters the transcriptional heatmap in MCF-7 and ZR-75 cells expressing D538G and Y537S MT-ERα (FIG. 66B, data shown for MCF-7 cells expressing D538G MT-ERα).

[2] = tested on: MT-ERα; experiment: MT-ERα protein levels; type: cell-based; details: over 12-24 h
[3] = tested on: cell lines driven by MT-ERα; experiment: sXBP1 and CHOP RNA expression; details: three cell lines driven by MT-ERα
[4] = tested on: BC cells expressing MT-ERα; experiment: Uncompensated UPR / LC3B activation; type: cell-based
Description: ERX-315 decreases expression of ERα MCF-7 cells with MT-ERα, both the Y537S and D538G mutants (FIG. 67C), around 12-16 h (FIG. 67D). […] In contrast, neither fulvestrant nor GDC-0810 consistently degrade MT-ERa nor induce LC3.

[5] = tested on: breast cancer cells; experiment: Growth inhibition of breast cancer cells; type: cell-based; details: read-out: IC50, activity against breast cancer cells
Text: In addition, another tris-benzmaide compound TK208 was synthesized and tested against breast cancer and ovarian cancer cell lines (FIGS. 10-15). […] These compounds (e.g., TK41, TK208, TK308 (FIG. 21), TK309 (FIG. 22), TK314, TK315) are extremely potent compounds that inhibit tumor growth and kill breast and ovarian cancer cells and as such, they are superb therapeutic candidates for such diseases.

[6] = tested on: MCF-7 expressing mutant D538G; experiment: Protein synthesis by puromycin labeling, BC cells; type: cell-based; details: 16 h
[7] = tested on: HMEC cells; experiment: Protein synthesis by puromycin labeling, HMEC; type: cell-based, human
[8] = target: T1, WT ERα LBD (Homo sapiens, UniProt P03372); experiment: LanthaScreen TR-FRET ERα coactivator assay; type: binding
T1 construct: in the presence of 3.5 nM ER Alpha-LBD (GST); purchased

[9] = tested on: MT-ERα; experiment: RNA sequencing of MT-ERα transcriptional programme; type: cell-based; details: MCF-7 and ZR-75 cells expressing D538G and Y537S MT-ERα
Text: as §1, §2

[10] = tested on: D538G MT-ERα; experiment: ERE reporter assay, ERX-315; type: cell-based; details: MCF-7 cells expressing D538G MT-ERα
[11] = tested on: human mammary epithelial cells (HMEC); experiment: Activity of ERX-315 in HMEC; type: cell-based
Text: ERX-315. The binding of ERX-315 (structure shown in FIG. 65C) to ERα has been validated for WT ERα LBD using time-resolved FRET (TR-FRET)-ERα Coactivator assay (FIG. 65D: purified MT-ERα LBD is not available). […] In contrast, ERX-314, which has a methyl group in place of the N-terminal fluoride of ERX-315, is modeled to bind less avidly to MT-ERα LBD (predicted docking energy˜[…]). […] ERX-315 had no activity against benign breast epithelial cells, shown for the human mammary epithelial cells (HMEC). In contrast, ERX-314 has dramatically lower potency (IC50˜1500-5000 nM) and serves an internal control for ERX-315. The inventors have performed most of the studies described below with three compounds-ERX-315 as the optimized lead, ERX-11 as the parental compound and ERX-314 as a negative control.

[12] = Pharmacokinetic studies of ERX-315; type: in vivo, mice
Description: At 24 h after oral administration, ERX-315 was still detectable in the plasma at >500 ng/mL. […] Thus, the inventors' initial studies indicate that once a day oral dosing of 10 mg/kg ERX-315 in captisol is sufficient to maintain therapeutic drug levels.

[13] = tested on: WT- and MT-ERα-driven cell lines (MCF-7, ZR-75); experiment: Anti-proliferative activity in WT- and MT-ERα-driven cell lines; type: cell-based
[14] = tested on: MT-ERα (ZR-75 and MCF-7 cells with MT Y537S ERα) driven xenograft models; experiment: ERX-315 in MT-ERα BC xenograft models; type: in vivo; details: for growth of MT-ERα xenografts / mouse liver, uterus, body weight: oral 10 mg/kg; for growth of MT-ERα xenografts: captisol
Description: Following establishment of tumors, mice (n=6/group) were randomized and treated for 5 days/week with either 10 mg/kg/oral of ERX-315 or vehicle.

T1 sequence (P03372 311-547 limits assumed): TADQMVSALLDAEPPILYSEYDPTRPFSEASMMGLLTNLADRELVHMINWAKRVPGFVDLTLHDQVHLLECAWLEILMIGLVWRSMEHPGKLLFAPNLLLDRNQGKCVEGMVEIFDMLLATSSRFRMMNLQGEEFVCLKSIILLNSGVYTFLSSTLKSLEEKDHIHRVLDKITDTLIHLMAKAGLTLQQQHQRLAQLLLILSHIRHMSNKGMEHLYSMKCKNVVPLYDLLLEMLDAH

SMILES: CC(C)COc1cc(C(=O)Nc2ccc(C(=O)N[C@H]3CC[C@H](C(=O)Nc4cnc5ccccc5c4)CC3)cc2OCC(C)C)ccc1NC(=O)c1ccc(F)c(OCCO)c1 [TK315]
- MT-ERα binding to promoters of ERα-regulated genes [1]: dramatically decreases MT-ERα binding
- protein levels of mutant ERα [2]: < 10 % basal
- expression of sXBP1 and CHOP at the RNA level [3]: significantly enhance
- uncompensated UPR leading to LC3B activation and cell death [4]: induced uncompensated UPR
- IC50 [5]: 10 to 50 nM
- shutdown of protein synthesis in BC cells [6]: Global shutdown of protein synthesis
- shutdown of protein synthesis in HMEC [7]: no significant shutdown of protein synthesis
- binding to WT ERα LBD [8]: validated
- MT-ERα transcriptional programme [9]: efficiently blocks the transcriptional programme
- ERE-driven transcription [10]: attenuate transcription
- activity against benign breast epithelial cells [11]: no activity
- oral bioavailability ([12]; captisol formulation): orally bioavailable
- concentration at 0.5 h ([12]; mouse, blood, 0.5 hr, single oral 10 mg/kg in captisol): 3440 ± 2320 ng/mL
- concentration at 1 h ([12]; mouse, blood, 1 hr, single oral 10 mg/kg in captisol): 2400 ± 1460 ng/mL
- concentration at 2 h ([12]; mouse, blood, 2 hr, single oral 10 mg/kg in captisol, read-out: Blood): 1840 ± 1290 ng/mL
- concentration at 4 h ([12]; mouse, blood, 4 hr, single oral 10 mg/kg in captisol, read-out: Blood): 16000 ± 394 ng/mL
- concentration at 8 h ([12]; mouse, blood, 8 hr, single oral 10 mg/kg in captisol, read-out: Blood): 823 ± 123 ng/mL
- concentration at 16 h ([12]; mouse, blood, 16 hr, single oral 10 mg/kg in captisol, read-out: Blood): 427 ± 197 ng/mL
- concentration at 24 h ([12]; mouse, plasma, 10 mg/kg, 24 h after oral administration, read-out: plasma level): > 500 ng/mL
- half-life ([12]; mouse, plasma, 10 mg/kg, oral, captisol): ~4.5 h
- concentration at 2 h ([12]; mouse, tumor, 10 mg/kg, 2 hr after last dose, MCF7 xenograft, oral 5 days/week for 10 days, read-out: Tumor): 1430 ± 631 ng/mL
- concentration at 4 h ([12]; mouse, tumor, 10 mg/kg, 4 hr after last dose, MCF7 xenograft, oral 5 days/week for 10 days, read-out: Tumor): 1010 ± 850 ng/mL
- concentration at 8 h ([12]; mouse, tumor, 10 mg/kg, 8 hr after last dose, MCF7 xenograft, oral 5 days/week for 10 days, read-out: Tumor): 609 ± 404 ng/mL
- concentration at 16 h ([12]; mouse, tumor, 10 mg/kg, 16 hr after last dose, MCF7 xenograft, oral 5 days/week for 10 days, read-out: Tumor): 187 ± 238 ng/mL
- concentration at 16 h ([12]; mouse, tumor, oral, 10 mg/kg, 16 h after the last dose, read-out: corresponding tumor concentration): > 100 nM
- concentration at 16 h ([12]; mouse, tumor, MCF-7 xenograft, 2 weeks daily oral 10 mg/kg, 16 h after the last dose, read-out: tumor tissue level): > 100 ng/g
- toxicity at 10 mg/kg ([12]; once a day oral 10 mg/kg): no significant toxicity
- IC50 [13]: 15 to 35 nM
- Ki67 proliferation indices in tumors ([14]; mouse, in vivo): dramatically decreased Ki67 proliferation indices
- growth of MT-ERα xenografts ([14]; 10 mg/kg): potent activity; also recorded: decreased the growth and tumor weight
- growth of MT-ERα xenografts ([14]; listed as ERX-315, 10 mg/kg): decreased the growth; also recorded: potent activity
- mouse liver, uterus, body weight ([14]; 10 mg/kg): no effect on mouse liver or body weight; also recorded: No change in body weight
- mouse liver, uterus, body weight ([14]; listed as ERX-315, 10 mg/kg): no change in body weight; also recorded: no effect on mouse liver, uterus height or body weight
- immunogenicity ([14]; syngeneic D2A1 tumors, spleen, lymph nodes, kidney, liver): not immunogenic

From US12275685B2, “Oligo-benzamide analogs and their use in cancer treatment” (Board of Regents, The University of Texas System, priority 2018, dated 2025)
